Laboratory results published in patent US20080009418A1, “Selective Inhibitors” (Alchemia LTD., priority 2004, published 2008).

What was measured:
[1] = target: T1, Human Melanocortin (MC3) (Homo sapiens, UniProt P41968); assay: Radioligand binding, human melanocortin MC3 membranes, FlashPlate, [125I]-NDP-αMSH; conditions: compound at 10 μM, [125I]-NDP-αMSH
T1 construct: purchased Perkin Elmer Biosignal
In short: (§1)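 Cloned human receptor membranes were coated onto FlashPlate wells and incubated with radioligand and compound (added from a 0.5 mM DMSO daughter plate) for 1 hour at room temperature in the dark. Scintillation counting gave percent inhibition, with DMSO defining total and reference ligand defining non-specific binding.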

[2] = target: T2, Human neurokinin (NK1) (Homo sapiens, UniProt P25103); assay: Radioligand binding, human neurokinin NK1 membranes, filtration, [125I]-Substance P; conditions: compound at 10 μM, [125I]-Substance P
T2 construct: purchased Perkin Elmer Biosignal
In short: (§2)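 Filtration binding on cloned human receptor membranes (1 Unit/well), [125I]-Substance P for NK1 and [3H]-Diprenorphine for KOP, 1 h at room temperature. Filters PEI-presoaked, washed with cold 50 mM Tris-HCl pH 7.4, counted by scintillation; percent inhibition calculated, reference ligand defining non-specific binding.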

[3] = target: T3, Human melanocortin (MC5) (Homo sapiens, UniProt P33032); assay: Radioligand binding, human melanocortin MC5 membranes, FlashPlate, [125I]-NDP-αMSH; conditions: compound at 10 μM, [125I]-NDP-αMSH
T3 construct: purchased Perkin Elmer Biosignal
In short: as §1

[4] = target: T4, Human δ-opioid (DOP) (Homo sapiens, UniProt P41143); assay: Radioligand binding, human δ-opioid (DOP) membranes, FlashPlate, [3H]-Bremazocine; conditions: compound at 10 μM, [3H]-Bremazocine
T4 construct: purchased Perkin Elmer Biosignal
In short: as §1

[5] = target: T5, Human Melanocortin (MC4) (Homo sapiens, UniProt P32245); assay: Radioligand binding, human melanocortin MC4 membranes, FlashPlate, [125I]-NDP-αMSH; conditions: compound at 10 μM, [125I]-NDP-αMSH
T5 construct: purchased Perkin Elmer Biosignal
In short: as §1

[6] = target: T6, Human neuropeptide Y (NPY-Y1) (Homo sapiens, UniProt P25929); assay: Radioligand binding, human neuropeptide Y NPY-Y1 membranes, FlashPlate, [125I]-PYY; conditions: compound at 10 μM, [125I]-PYY
T6 construct: purchased Perkin Elmer Biosignal
T6 sequence (P25929 1-384): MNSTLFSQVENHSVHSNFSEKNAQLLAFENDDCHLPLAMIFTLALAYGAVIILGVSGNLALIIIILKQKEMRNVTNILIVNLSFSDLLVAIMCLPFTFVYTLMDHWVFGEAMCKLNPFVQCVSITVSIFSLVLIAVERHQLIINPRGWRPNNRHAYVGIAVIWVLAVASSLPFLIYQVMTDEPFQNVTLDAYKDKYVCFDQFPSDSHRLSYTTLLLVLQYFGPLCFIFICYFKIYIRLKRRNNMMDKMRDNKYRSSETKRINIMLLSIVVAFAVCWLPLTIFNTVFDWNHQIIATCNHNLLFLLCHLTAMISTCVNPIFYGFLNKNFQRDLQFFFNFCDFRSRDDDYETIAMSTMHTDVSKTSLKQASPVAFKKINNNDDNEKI
In short: as §1

[7] = target: T7, Human κ-Opioid (KOP) (Homo sapiens, UniProt P41145); assay: Radioligand binding, human κ-opioid (KOP) membranes, filtration, [3H]-Diprenorphine; conditions: compound at 10 μM, [3H]-Diprenorphine
T7 construct: purchased Perkin Elmer Biosignal
In short: as §2

[8] = target: T8, Mouse urotensin (mUR2) (Mus musculus, UniProt Q8VIH9); assay: Radioligand binding, mouse urotensin mUR2 membranes, FlashPlate, [125I]-Urotensin II; conditions: compound at 10 μM, [125I]-Urotensin II
T8 construct: purchased Perkin Elmer Biosignal
T8 sequence (Q8VIH9 1-385): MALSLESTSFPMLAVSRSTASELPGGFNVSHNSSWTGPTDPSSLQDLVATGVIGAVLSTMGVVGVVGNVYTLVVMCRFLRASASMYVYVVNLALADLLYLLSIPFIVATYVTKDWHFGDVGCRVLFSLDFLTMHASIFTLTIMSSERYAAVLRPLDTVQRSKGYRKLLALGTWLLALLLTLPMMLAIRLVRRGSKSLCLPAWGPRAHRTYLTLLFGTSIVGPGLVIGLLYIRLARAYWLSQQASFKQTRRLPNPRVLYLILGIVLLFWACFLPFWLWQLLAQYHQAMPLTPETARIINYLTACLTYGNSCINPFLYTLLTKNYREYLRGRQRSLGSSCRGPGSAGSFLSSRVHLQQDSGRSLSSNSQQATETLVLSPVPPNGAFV
In short: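 Cloned mouse urotensin (mUR2) receptor membranes from Perkin Elmer Biosignal were immobilized in FlashPlate microplates using a proprietary coating. Each well got 19.5 μl buffer, then 0.5 μl of DMSO, reference ligand, or compound. Adding 5 μl of [125I]-Urotensin II, diluted to 5× final concentration in binding buffer, started binding. Plates were sealed with TopSeal-A and incubated 1 hour at room temperature in the dark. Wells were counted for 30 seconds each on a TopCount after a 60-second delay, and percentage inhibition was calculated.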

[9] = target: T9, Human opioid (ORL1) (Homo sapiens, UniProt P41146); assay: Radioligand binding, human opioid ORL1 membranes, FlashPlate, [125I]-Nociceptin; conditions: compound at 10 μM, [125I]-Nociceptin
T9 construct: purchased Perkin Elmer Biosignal
In short: as §1

[10] = target: T10, Human melanin-concentrating hormone (MCH1) (Homo sapiens, UniProt Q99705); assay: Radioligand binding, human melanin-concentrating hormone MCH1 membranes, FlashPlate, [125I]-S36057; conditions: compound at 10 μM; for A6 radioligand binding, percentage inhibition: [125I]-S36057
T10 construct: purchased Perkin Elmer Biosignal
In short: as §1

[11] = target: T11, Human μ-opioid (MOP) (Homo sapiens, UniProt P35372); assay: Radioligand binding, human μ-opioid (MOP) membranes, FlashPlate, [3H]-Naloxone; conditions: compound at 10 μM, [3H]-Naloxone
T11 construct: purchased Perkin Elmer Biosignal
In short: as §1

T10 sequence (Q99705 whole entry): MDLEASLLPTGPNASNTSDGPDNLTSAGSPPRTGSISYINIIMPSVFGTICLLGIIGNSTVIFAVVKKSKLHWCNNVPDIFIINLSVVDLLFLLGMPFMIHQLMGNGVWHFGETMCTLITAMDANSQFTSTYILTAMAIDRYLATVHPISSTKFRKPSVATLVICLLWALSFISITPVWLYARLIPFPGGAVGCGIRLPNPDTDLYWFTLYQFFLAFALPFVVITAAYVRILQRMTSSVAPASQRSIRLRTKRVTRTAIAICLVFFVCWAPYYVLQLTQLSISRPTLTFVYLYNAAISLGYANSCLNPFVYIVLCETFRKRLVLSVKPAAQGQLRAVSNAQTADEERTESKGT
T7 sequence (P41145 whole entry): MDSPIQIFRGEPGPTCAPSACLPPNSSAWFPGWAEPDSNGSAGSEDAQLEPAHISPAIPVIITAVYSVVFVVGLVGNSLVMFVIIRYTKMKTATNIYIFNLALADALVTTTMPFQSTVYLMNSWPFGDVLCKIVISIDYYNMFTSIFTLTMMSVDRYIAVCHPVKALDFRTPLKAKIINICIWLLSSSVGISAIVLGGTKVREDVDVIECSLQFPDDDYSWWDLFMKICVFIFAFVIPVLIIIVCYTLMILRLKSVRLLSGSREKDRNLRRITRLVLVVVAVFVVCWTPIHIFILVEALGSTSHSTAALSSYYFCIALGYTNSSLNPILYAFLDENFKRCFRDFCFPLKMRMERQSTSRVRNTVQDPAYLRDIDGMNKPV
T9 sequence (P41146 whole entry): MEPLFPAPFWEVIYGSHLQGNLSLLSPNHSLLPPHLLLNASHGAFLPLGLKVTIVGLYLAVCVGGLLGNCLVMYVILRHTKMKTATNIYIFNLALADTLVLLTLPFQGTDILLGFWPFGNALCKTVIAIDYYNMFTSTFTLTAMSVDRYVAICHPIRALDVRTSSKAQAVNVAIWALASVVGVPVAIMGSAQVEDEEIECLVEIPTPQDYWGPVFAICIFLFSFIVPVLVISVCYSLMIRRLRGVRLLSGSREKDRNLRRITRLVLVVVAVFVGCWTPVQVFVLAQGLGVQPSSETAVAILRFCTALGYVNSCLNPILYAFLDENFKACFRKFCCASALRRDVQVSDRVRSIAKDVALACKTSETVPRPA
T11 sequence (P35372 whole entry): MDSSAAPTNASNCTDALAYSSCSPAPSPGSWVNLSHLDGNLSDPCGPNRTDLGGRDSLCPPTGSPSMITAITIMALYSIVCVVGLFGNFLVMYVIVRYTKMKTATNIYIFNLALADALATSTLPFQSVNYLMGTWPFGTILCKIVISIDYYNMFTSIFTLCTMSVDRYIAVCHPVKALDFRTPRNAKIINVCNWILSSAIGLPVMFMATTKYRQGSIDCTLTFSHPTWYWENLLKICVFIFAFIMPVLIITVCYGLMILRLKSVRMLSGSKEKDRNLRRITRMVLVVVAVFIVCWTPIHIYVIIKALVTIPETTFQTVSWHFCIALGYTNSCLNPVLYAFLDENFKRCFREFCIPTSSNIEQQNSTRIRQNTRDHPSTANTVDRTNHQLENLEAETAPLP
T1 sequence (P41968 whole entry): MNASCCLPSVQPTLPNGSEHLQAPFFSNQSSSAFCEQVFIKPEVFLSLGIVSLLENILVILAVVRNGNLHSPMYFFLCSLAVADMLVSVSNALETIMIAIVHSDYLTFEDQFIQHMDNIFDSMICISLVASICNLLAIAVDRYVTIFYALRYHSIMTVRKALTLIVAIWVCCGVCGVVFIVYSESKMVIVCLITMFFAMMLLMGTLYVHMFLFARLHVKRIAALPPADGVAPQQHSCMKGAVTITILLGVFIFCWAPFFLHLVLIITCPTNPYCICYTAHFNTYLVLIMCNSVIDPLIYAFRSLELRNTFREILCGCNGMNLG
T4 sequence (P41143 whole entry): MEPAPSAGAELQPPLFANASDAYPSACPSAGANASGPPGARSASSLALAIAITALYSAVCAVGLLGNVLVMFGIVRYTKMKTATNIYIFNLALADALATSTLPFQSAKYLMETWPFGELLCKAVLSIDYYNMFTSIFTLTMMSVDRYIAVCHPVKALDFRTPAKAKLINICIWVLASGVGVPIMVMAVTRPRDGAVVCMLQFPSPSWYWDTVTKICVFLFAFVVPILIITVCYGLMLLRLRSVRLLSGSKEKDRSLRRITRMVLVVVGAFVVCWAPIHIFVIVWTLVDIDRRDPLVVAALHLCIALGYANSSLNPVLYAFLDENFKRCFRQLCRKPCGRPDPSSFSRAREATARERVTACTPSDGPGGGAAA
T2 sequence (P25103 whole entry): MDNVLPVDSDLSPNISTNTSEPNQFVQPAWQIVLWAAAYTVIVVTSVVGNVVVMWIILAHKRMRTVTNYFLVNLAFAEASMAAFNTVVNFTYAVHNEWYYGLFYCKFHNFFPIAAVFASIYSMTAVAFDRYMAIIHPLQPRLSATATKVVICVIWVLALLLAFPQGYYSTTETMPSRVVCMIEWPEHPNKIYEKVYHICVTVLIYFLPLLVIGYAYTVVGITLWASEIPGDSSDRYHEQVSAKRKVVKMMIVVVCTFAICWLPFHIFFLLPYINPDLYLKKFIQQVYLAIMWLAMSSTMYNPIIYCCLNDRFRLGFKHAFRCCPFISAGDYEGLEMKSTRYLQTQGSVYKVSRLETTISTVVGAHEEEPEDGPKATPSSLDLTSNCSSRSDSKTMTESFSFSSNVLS
T3 sequence (P33032 whole entry): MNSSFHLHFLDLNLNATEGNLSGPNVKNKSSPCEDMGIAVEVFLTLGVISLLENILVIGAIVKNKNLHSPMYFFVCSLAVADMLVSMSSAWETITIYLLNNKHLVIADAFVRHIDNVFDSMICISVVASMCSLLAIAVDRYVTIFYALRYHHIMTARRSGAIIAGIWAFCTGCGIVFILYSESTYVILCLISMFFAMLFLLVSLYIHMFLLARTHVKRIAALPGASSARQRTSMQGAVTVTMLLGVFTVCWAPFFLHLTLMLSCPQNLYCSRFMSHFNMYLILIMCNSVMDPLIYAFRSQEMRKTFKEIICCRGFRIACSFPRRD
T5 sequence (P32245 whole entry): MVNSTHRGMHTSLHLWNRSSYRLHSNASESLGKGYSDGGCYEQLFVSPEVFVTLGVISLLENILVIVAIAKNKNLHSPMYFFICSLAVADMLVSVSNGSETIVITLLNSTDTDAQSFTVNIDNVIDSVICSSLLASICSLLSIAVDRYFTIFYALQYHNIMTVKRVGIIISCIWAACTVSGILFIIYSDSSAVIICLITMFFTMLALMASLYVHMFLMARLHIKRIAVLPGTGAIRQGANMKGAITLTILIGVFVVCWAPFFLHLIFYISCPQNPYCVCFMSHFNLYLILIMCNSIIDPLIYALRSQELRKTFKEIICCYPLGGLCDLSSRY

| Structure (SMILES) | A3 radioligand binding, percentage inhibition [1] | A8 radioligand binding, percentage inhibition [2] | A5 radioligand binding, percentage inhibition [3] | A1 radioligand binding, percentage inhibition [4] | A4 radioligand binding, percentage inhibition [5] | A9 radioligand binding, percentage inhibition [6] | A2 radioligand binding, percentage inhibition [7] | A11 radioligand binding, percentage inhibition [8] | A10 radioligand binding, percentage inhibition [9] | A6 radioligand binding, percentage inhibition [10] | A7 radioligand binding, percentage inhibition [11] | further results |
| --- | --- | --- | --- | --- | --- | --- | --- | --- | --- | --- | --- | --- |
| COCC1OC(OCc2ccccc2)C(NC(=O)CCCN)C(OCc2ccc(Cl)cc2)C1O (stereo not shown) [compound 180] | − (“−” indicates less than 50% inhibition at 10 μM) | + (“+” indicates greater than 50% inhibition at 10 μM) | − (“−” indicates less than 50% inhibition at 10 μM) | − (“−” indicates less than 50% inhibition at 10 μM) | − (“−” indicates less than 50% inhibition at 10 μM) | − (“−” indicates less than 50% inhibition at 10 μM) | − (“−” indicates less than 50% inhibition at 10 μM) | − (“−” indicates less than 50% inhibition at 10 μM) | − (“−” indicates less than 50% inhibition at 10 μM) | − (“−” indicates less than 50% inhibition at 10 μM) | − (“−” indicates less than 50% inhibition at 10 μM) | – |
| N=C(N)NCC(=O)NC1C(OCc2ccc(Cl)cc2)OC(COCc2ccc3ccccc3c2)C(O)C1OCc1ccc(-c2ccccc2)cc1 (stereo not shown) [compound 423] | – | – | – | – | – | – | – | – | – | – | – | A3: inhibition of radioligand binding ([1]; human MC3 membranes): + (“+” indicates greater than 50% inhibition at 10 μM); A8: inhibition of radioligand binding ([2]; human NK1 membranes): + (“+” indicates greater than 50% inhibition at 10 μM); A5: inhibition of radioligand binding ([3]; human MC5 membranes): + (“+” indicates greater than 50% inhibition at 10 μM); A1: inhibition of radioligand binding ([4]; human DOP membranes): − (“−” indicates less than 50% inhibition at 10 μM); A4: inhibition of radioligand binding ([5]; human MC4 membranes): + (“+” indicates greater than 50% inhibition at 10 μM); A9: inhibition of radioligand binding ([6]; human NPY-Y1 membranes): − (“−” indicates less than 50% inhibition at 10 μM); A2: inhibition of radioligand binding ([7]; human KOP membranes): − (“−” indicates less than 50% inhibition at 10 μM); A11: inhibition of radioligand binding ([8]; mouse mUR2 membranes): − (“−” indicates less than 50% inhibition at 10 μM); A10: inhibition of radioligand binding ([9]; human ORL1 membranes): + (“+” indicates greater than 50% inhibition at 10 μM); A6: inhibition of radioligand binding ([10]; [125I]-S36057, human MCH1 membranes): − (“−” indicates less than 50% inhibition at 10 μM); A7: inhibition of radioligand binding ([11]; human MOP membranes): − (“−” indicates less than 50% inhibition at 10 μM) |
| COC[C@H]1OC(OCc2ccc3ccccc3c2)[C@H](NC(=O)CNC(=N)N)[C@@H](OCc2cccc(O)c2)[C@@H]1O (stereo partly shown) [compound 133] | − (“−” indicates less than 50% inhibition at 10 μM) | − (“−” indicates less than 50% inhibition at 10 μM) | − (“−” indicates less than 50% inhibition at 10 μM) | − (“−” indicates less than 50% inhibition at 10 μM) | − (“−” indicates less than 50% inhibition at 10 μM) | − (“−” indicates less than 50% inhibition at 10 μM) | − (“−” indicates less than 50% inhibition at 10 μM) | − (“−” indicates less than 50% inhibition at 10 μM) | − (“−” indicates less than 50% inhibition at 10 μM) | − (“−” indicates less than 50% inhibition at 10 μM) | + (“+” indicates greater than 50% inhibition at 10 μM) | – |
| CO[C@H]1[C@H](O)[C@@H](COCc2cccc(O)c2)OC(OCc2ccccc2)[C@@H]1NC(=O)CCCNC(=N)N (stereo partly shown) [compound 154] | − (“−” indicates less than 50% inhibition at 10 μM) | + (“+” indicates greater than 50% inhibition at 10 μM) | − (“−” indicates less than 50% inhibition at 10 μM) | − (“−” indicates less than 50% inhibition at 10 μM) | − (“−” indicates less than 50% inhibition at 10 μM) | − (“−” indicates less than 50% inhibition at 10 μM) | − (“−” indicates less than 50% inhibition at 10 μM) | − (“−” indicates less than 50% inhibition at 10 μM) | − (“−” indicates less than 50% inhibition at 10 μM) | − (“−” indicates less than 50% inhibition at 10 μM) | − (“−” indicates less than 50% inhibition at 10 μM) | – |
| CSC1OC(COCc2ccc3ccccc3c2)C(O)C(OCc2ccccc2)C1NC(=O)CNC(=N)N (stereo not shown) [compound 260] | – | – | – | – | – | – | – | – | – | – | – | A3: inhibition of radioligand binding ([1]; FlashPlate): − (“−” indicates less than 50% inhibition at 10 μM); A8: inhibition of radioligand binding ([2]; filtration): − (“−” indicates less than 50% inhibition at 10 μM); A5: inhibition of radioligand binding ([3]; FlashPlate): − (“−” indicates less than 50% inhibition at 10 μM); A1: inhibition of radioligand binding ([4]; FlashPlate): − (“−” indicates less than 50% inhibition at 10 μM); A4: inhibition of radioligand binding ([5]; FlashPlate): + (“+” indicates greater than 50% inhibition at 10 μM); A9: inhibition of radioligand binding ([6]; FlashPlate): − (“−” indicates less than 50% inhibition at 10 μM); A2: inhibition of radioligand binding ([7]; filtration): − (“−” indicates less than 50% inhibition at 10 μM); A11: inhibition of radioligand binding ([8]; FlashPlate): − (“−” indicates less than 50% inhibition at 10 μM); A10: inhibition of radioligand binding ([9]; FlashPlate): − (“−” indicates less than 50% inhibition at 10 μM); A6: inhibition of radioligand binding ([10]; [125I]-S36057, FlashPlate): − (“−” indicates less than 50% inhibition at 10 μM); A7: inhibition of radioligand binding ([11]; FlashPlate): − (“−” indicates less than 50% inhibition at 10 μM) |
